The structures appear in SMILES notation.

The target of this assay is HCV RdRp (NS5B) (UniProt P26663). The format is biochemical, hepatitis C virus.
Chain of HCV RdRp (NS5B) (P26663 whole entry, looked up): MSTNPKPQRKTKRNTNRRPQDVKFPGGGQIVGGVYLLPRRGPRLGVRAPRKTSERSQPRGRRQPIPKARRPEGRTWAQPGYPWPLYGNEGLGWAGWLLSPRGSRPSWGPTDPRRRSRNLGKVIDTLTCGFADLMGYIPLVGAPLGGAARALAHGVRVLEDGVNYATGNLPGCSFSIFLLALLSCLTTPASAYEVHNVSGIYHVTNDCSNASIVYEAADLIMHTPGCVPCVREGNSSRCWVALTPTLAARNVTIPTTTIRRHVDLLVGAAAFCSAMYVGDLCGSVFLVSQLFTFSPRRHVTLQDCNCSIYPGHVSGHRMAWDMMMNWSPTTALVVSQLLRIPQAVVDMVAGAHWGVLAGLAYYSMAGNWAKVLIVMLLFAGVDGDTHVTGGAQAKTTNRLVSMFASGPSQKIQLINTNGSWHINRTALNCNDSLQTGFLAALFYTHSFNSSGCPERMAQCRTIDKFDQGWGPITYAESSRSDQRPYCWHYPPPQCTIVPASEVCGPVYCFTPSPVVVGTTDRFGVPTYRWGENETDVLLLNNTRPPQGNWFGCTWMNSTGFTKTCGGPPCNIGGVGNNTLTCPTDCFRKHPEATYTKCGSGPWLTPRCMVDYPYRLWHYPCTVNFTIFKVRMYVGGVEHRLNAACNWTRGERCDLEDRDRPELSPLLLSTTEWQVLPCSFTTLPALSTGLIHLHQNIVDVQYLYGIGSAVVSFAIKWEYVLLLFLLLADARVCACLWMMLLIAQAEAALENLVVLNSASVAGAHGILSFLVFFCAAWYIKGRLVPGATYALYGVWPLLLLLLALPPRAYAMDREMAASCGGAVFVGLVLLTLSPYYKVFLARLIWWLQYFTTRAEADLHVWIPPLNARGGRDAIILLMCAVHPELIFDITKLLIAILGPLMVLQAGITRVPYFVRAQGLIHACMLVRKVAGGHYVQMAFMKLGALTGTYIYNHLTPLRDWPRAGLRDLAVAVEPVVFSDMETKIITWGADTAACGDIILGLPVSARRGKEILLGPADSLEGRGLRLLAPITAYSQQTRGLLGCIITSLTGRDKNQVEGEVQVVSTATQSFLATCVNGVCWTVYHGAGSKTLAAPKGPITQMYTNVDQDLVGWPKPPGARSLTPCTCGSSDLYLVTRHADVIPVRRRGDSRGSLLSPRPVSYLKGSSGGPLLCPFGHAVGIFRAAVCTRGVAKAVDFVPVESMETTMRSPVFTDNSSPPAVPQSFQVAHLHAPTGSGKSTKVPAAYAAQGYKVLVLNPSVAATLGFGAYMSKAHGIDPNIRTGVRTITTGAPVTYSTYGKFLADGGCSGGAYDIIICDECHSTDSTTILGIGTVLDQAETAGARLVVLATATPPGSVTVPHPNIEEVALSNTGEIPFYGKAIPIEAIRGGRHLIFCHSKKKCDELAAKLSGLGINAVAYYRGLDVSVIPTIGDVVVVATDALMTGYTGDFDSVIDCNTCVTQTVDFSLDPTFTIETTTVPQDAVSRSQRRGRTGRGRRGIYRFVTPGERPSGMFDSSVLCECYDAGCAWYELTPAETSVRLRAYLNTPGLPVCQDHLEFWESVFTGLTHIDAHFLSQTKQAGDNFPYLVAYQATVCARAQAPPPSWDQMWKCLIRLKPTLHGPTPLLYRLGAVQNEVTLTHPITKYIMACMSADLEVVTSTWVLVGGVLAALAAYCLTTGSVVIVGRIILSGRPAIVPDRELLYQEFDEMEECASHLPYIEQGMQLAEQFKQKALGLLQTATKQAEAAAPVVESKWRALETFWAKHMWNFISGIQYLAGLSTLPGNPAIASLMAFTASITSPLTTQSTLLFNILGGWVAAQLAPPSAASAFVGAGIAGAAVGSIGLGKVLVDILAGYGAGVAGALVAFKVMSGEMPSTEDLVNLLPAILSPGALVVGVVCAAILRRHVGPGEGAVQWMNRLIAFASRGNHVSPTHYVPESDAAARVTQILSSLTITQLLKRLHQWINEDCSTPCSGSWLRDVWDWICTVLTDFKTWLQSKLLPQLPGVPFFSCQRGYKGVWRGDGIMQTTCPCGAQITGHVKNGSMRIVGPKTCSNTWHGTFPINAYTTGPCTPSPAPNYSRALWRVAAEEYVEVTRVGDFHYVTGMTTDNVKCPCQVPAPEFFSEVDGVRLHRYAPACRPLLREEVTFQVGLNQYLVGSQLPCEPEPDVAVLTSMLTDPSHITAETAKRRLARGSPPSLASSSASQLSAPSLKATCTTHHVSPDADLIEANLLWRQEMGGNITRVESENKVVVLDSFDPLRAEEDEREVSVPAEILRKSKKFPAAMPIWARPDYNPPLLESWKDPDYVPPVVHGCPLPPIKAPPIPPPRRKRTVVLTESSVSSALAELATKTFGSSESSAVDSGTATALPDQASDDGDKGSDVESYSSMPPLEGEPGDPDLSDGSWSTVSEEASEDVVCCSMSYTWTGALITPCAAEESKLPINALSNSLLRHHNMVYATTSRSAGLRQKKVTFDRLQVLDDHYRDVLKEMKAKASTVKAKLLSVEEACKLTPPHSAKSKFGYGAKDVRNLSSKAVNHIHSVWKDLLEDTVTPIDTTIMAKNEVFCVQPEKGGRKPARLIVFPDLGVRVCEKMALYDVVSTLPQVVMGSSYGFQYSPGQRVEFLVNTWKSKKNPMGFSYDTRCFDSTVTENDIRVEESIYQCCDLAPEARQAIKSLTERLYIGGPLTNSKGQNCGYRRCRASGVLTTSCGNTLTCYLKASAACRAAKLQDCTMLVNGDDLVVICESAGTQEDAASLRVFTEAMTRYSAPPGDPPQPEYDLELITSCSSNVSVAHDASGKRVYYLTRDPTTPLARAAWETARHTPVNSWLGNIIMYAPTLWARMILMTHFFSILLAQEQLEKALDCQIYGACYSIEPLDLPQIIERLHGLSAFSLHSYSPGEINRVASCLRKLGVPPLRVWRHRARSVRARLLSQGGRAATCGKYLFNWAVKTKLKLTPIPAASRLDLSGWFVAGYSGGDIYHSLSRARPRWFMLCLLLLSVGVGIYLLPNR

In the case of `Cc1ccc(NC(=O)C(Cc2ccc(O)cc2)NC(=O)OCC2c3ccccc3-c3ccccc32)cc1` [Compound 380, (R)-[2-(4-HYDROXY-PHENYL)-1-P-TOLYLCARBAMOYL-ETHYL]-CARBAMIC ACID 9H-FLUOREN-9-YLMETHYL ESTER], the IC50 is > 50 µM.

For the molecule `Cc1ccc(NC(=O)[C@@H](CCCN)NC(=O)Nc2ccc3c(c2)Cc2ccccc2-3)cc1` [Compound 193, (R)-5-AMINO-2-[3-(9H-FLUOREN-2-YL)-UREIDO]-PENTANOIC ACID P-TOLYLAMIDE], the IC50 was < 10 µM.

Regarding `NCCCC[C@H](NC(=O)OCC1c2ccccc2-c2ccccc21)C(=O)Nc1cccc(F)c1` [Compound 80, (S)-[5-AMINO-1-(3-FLUORO-PHENYLCARBAMOYL)-PENTYL]-CARBAMIC ACID 9H-FLUOREN-9-YLMETHYL ESTER], the half-inhibitory concentration (IC50) was > 50 µM.

With `CCN(CC)c1ccc(NC(=O)[C@H](CCCCN)NC(=O)OCC2c3ccccc3-c3ccccc32)cc1` [Compound 106, (S)-[5-AMINO-1-(4-DIETHYLAMINO-PHENYLCARBAMOYL)-PENTYL]-CARBAMIC ACID 9H-FLUOREN-9-YLMETHYL ESTER], the IC50 is > 50 µM.

Turning to `NCCCC[C@H](NC(=O)OCC1c2ccccc2-c2ccccc21)C(=O)Nc1ccc(CN(C(=O)c2ccco2)C2CCCCC2)cc1` [Compound 6, (S)-[5-AMINO-1-(4-{[CYCLOHEXYL-(FURAN-2-CARBONYL)-AMINO]-METHYL}-PHENYLCARBAMOYL)-PENTYL]-CARBAMIC ACID 9H-FLUOREN-9-YL METHYL ESTER], the IC50 was < 10 µM.

`Cc1ccc(NC(=O)C(Cc2c[nH]c3ccccc23)NC(=O)OCC2c3ccccc3-c3ccccc32)cc1` [Compound 379, (R)-[2-(1H-INDOL-3-YL)-1-P-TOLYLCARBAMOYL-ETHYL]-CARBAMIC ACID 9H-FLUOREN-9-YLMETHYL ESTER]: the IC50 was > 50 µM.

For `NCCCCC(NC(=O)OCC1c2ccccc2-c2ccccc21)C(=O)NCc1ccccc1` (stereo in doubt) [Compound 21, (S)-(5-AMINO-1-BENZYLCARBAMOYL-PENTYL)-CARBAMIC ACID 9H-FLUOREN-9-YLMETHYL ESTER], the IC50 was > 50 µM.

For `Cc1cc2cc(NC(=O)[C@H](CCCCNC(=O)CN)NC(=O)Nc3ccc(OCc4ccccc4)cc3)ccc2[nH]1` [Compound 239, (S)-6-(2-AMINO-ACETYLAMINO)-2-[3-(4-BENZYLOXY-PHENYL)-UREIDO]-HEXANOIC ACID (2-METHYL-1H-INDOL-5-YL)-AMIDE], the IC50 was < 10 µM.

Consider `CNC(Cc1c[nH]c2ccccc12)C(=O)NC(CCCCN)C(=O)Nc1ccc(C)cc1` [Compound 90, (S)-6-AMINO-2-[3-(1H-INDOL-3-YL)-2-(S)-METHYLAMINO-PROPIONYLAMINO]-HEXANOIC ACID P-TOLYLAMIDE], for which the IC50 is > 50 µM.

For `Cc1ccc(NC(=O)C(CCCCN)NC(=O)COc2ccc(-c3ccccc3)cc2)cc1` [Compound 326, (S)-6-AMINO-2-[2-(BIPHENYL-4-YLOXY)-ACETYLAMINO]-HEXANOIC ACID P-TOLYLAMIDE], the IC50 was > 50 µM.

Take `Cc1ccc(NC(=O)[C@H](CCCCN)NS(=O)(=O)c2ccc(Cl)cc2Cl)cc1` [Compound 393, (S)-6-AMINO-2-(2,4-DICHLORO-BENZENESULFONYLAMINO)-HEXANOIC ACID P-TOLYLAMIDE]: the IC50 was > 50 µM.

For `N[C@@H](CCNC(=O)OCC1c2ccccc2-c2ccccc21)C(=O)Nc1ccc(CN(C(=O)c2ccco2)C2CCCCC2)cc1` [Compound 14, (S)-[3-AMINO-3-(4-{[CYCLOHEXYL-(FURAN-2-CARBONYL)-AMINO]-METHYL}-PHENYLCARBAMOYL)-PROPYL]-CARBAMIC ACID 9H-FLUOREN-9-YLMETHYL ESTER], the half-inhibitory concentration (IC50) lay in the range of 10 to 50 µM.

As to `Cc1ccc(NC(=O)C(CCCCN)NC(=O)C(N)Cc2cccc3ccccc23)cc1` [Compound 60, (S,S)-6-AMINO-2-(2-AMINO-3-NAPHTHALEN-1-YL-PROPIONYLAMINO)-HEXANOIC ACID P-TOLYLAMIDE], the IC50 is > 50 µM.

In the case of `CCOC(=O)c1ccc(NC(=O)NC(CCCCN)C(=O)Nc2ccc(C)cc2)cc1` [Compound 245, (S)-4-[3-(5-AMINO-1-P-TOLYLCARBAMOYL-PENTYL)-UREIDO]-BENZOIC ACID ETHYL ESTER], the IC50 was > 50 µM.

`NCCCC[C@H](NC(=O)OCC1c2ccccc2-c2ccccc21)C(=O)Nc1cc(-c2ccccc2)n[nH]1` [Compound 267, (S)-[5-AMINO-1-(5-PHENYL-2H-PYRAZOL-3-YLCARBAMOYL)-PENTYL]-CARBAMIC ACID 9H-FLUOREN-9-YLMETHYL ESTER] came in with an IC50 of 10 to 50 µM.

Consider `Cc1ccc(NC(=O)C2CCCN2C(=O)OCC2c3ccccc3-c3ccccc32)cc1` [Compound 85, (S)-2-P-TOLYLCARBAMOYL-PYRROLIDINE-1-CARBOXYLIC ACID 9H-FLUOREN-9-YLMETHYL ESTER], for which the IC50 was > 50 µM.

Regarding `Cc1ccc(NC(=O)C(CCCCN)NC(=O)c2ccccc2-c2ccccc2)cc1` [Compound 54, (S)-BIPHENYL-2-CARBOXYLIC ACID (5-AMINO-1-P-TOLYLCARBAMOYL-PENTYL)-AMIDE], the IC50 was > 50 µM.

Turning to `Cc1ccc(NC(=O)[C@@H](CCCCN)NC(=O)NCc2ccc(Cl)cc2)cc1` [Compound 169, (R)-6-AMINO-2-[3-(4-CHLORO-BENZYL)-UREIDO]-HEXANOIC ACID P-TOLYLAMIDE], the IC50 is > 50 µM.

`Cc1ccc(NC(=O)[C@H](CCCCN)NC(=O)NS(=O)(=O)c2ccccc2)cc1` [Compound 99, (S)-6-AMINO-2-[PHENYLSULFONAMIDE-UREIDO]-HEXANOIC ACID P-TOLYLAMIDE]: the IC50 was > 50 µM.

On to `Cc1ccc(NC(=O)C(CCCCN)NC(=O)C(N)Cc2cccc3ccccc23)cc1` [Compound 61, (S,R)-6-AMINO-2-(2-AMINO-3-NAPHTHALEN-1-YL-PROPIONYLAMINO)-HEXANOIC ACID P-TOLYLAMIDE], for which the IC50 is > 50 µM.

`Cc1ccc(NC(=O)C(Cc2ccc(CN)cc2)NC(=O)OCC2c3ccccc3-c3ccccc32)cc1` [Compound 129, (S)-[2-(4-AMINOMETHYL-PHENYL)-1-P-TOLYLCARBAMOYL-ETHYL]-CARBAMIC ACID 9H-FLUOREN-9-YLMETHYL ESTER]: the half-maximal inhibitory concentration (IC50) was < 10 µM.

On to `Cc1ccc(NC(=O)C(CCCCN)NC(=O)CNCc2ccccc2C(F)(F)F)cc1` [Compound 350, (S)-6-AMINO-2-[2-(2-TRIFLUOROMETHYL-BENZYLAMINO)-ACETYLAMINO]-HEXANOIC ACID P-TOLYLAMIDE], for which the IC50 was > 50 µM.

With `Cc1ccc(NC(=O)[C@@H](CCCCN)NC(=O)Nc2cccc(OCc3ccccc3)c2)cc1` [Compound 205, (R)-6-AMINO-2-[3-(3-BENZYLOXY-PHENYL)-UREIDO]-HEXANOIC ACID P-TOLYLAMIDE], the IC50 was > 50 µM.

On to `Cc1ccc(NC(=O)C(Cc2ccc(CN)cc2)NC(=O)Nc2ccc3c(c2)Cc2ccccc2-3)cc1` [Compound 147, (S)-3-(4-AMINOMETHYL-PHENYL)-2-[3-(9H-FLUOREN-2-YL)-UREIDO]-N-P-TOLYL-PROPIONAMIDE], for which the IC50 was < 10 µM.

`Cc1ccc(NC(=O)C(CCCCN)NC(=O)Nc2ccc(C(=O)c3ccccc3)cc2)cc1` [Compound 75, (S)-6-AMINO-2-[3-(4-BENZOYL-PHENYL)-UREIDO]-HEXANOIC ACID P-TOLYLAMIDE]: the IC50 is > 50 µM.

On to `COc1ccccc1CNCC(=O)N[C@@H](CCCCN)C(=O)Nc1ccc(C)cc1` [Compound 341, (S)-6-AMINO-2-[2-(2-METHOXY-BENZYLAMINO)-ACETYLAMINO]-HEXANOIC ACID P-TOLYLAMIDE], for which the IC50 is > 50 µM.

`CCCCNC(=O)[C@H](CCCCN)NC(=O)Nc1ccc(OCc2ccccc2)cc1` [Compound 258, (S)-6-AMINO-2-[3-(4-BENZYLOXY-PHENYL)-UREIDO]-HEXANOIC ACID BUTYLAMIDE]: the IC50 was > 50 µM.

For `Cc1ccc(NC(=O)[C@H](CCCCN)NC(=O)CNc2ccccc2F)cc1` [Compound 359, (S)-6-AMINO-2-[2-(2-FLUORO-PHENYLAMINO)-ACETYLAMINO]-HEXANOIC ACID P-TOLYLAMIDE], the IC50 is > 50 µM.

For `Cc1ccc(NC(=O)CC2CNCCN2C(=O)OCC2c3ccccc3-c3ccccc32)cc1` (stereo not shown) [Compound 197, 2-(P-TOLYLCARBAMOYL-METHYL)-PIPERAZINE-1-CARBOXYLIC ACID 9H-FLUOREN-9-YLMETHYL ESTER], the IC50 is > 50 µM.

In the case of `NCC(=O)Nc1ccccc1NC(=O)CNC(=O)OCC1c2ccccc2-c2ccccc21` [Compound 311, {[2-(2-AMINO-ACETYLAMINO)-PHENYLCARBAMOYL]-METHYL}-CARBAMIC ACID 9H-FLUOREN-9-YLMETHYL ESTER], the IC50 is > 50 µM.

As to `COc1ccc(NC(=O)N[C@@H](CCCCN)C(=O)Nc2ccc(C)cc2)cc1` [Compound 300, (S)-6-AMINO-2-[3-(4-METHOXY-PHENYL)-UREIDO]-HEXANOIC ACID P-TOLYLAMIDE], the IC50 is > 50 µM.

Consider `Cc1ccc(NC(=O)[C@H](CCCCN)NC(=O)NC2c3ccccc3-c3ccccc32)cc1` [Compound 126, (S)-6-AMINO-2-[3-(9H-FLUOREN-9-YL)-UREIDO]-HEXANOIC ACID P-TOLYLAMIDE], for which the IC50 is < 10 µM.

For the molecule `Cc1ccc(NC(=O)C(CC(=O)O)NC(=O)OCC2c3ccccc3-c3ccccc32)cc1` [Compound 370, (S)-3-(9H-FLUOREN-9-YLMETHOXYCARBONYLAMINO)-NR-P-TOLYL-[…]], the IC50 is > 50 µM.

With `Cc1ccc(NC(=O)C(CCCCN)NC(=O)NC(C)c2cccc3ccccc23)cc1` [Compound 96, (R,S)-6-AMINO-2-[3-(1-NAPHTHALEN-1-YL-ETHYL)-UREIDO]-HEXANOIC ACID P-TOLYLAMIDE], the 50% inhibitory concentration (IC50) is > 50 µM.

With `Cc1ccc(NC(=O)NC(CCCCN)C(=O)Nc2ccc(C)cc2)cc1` [Compound 135, (S)-6-AMINO-2-(3-P-TOLYL-UREIDO)-HEXANOIC ACID P-TOLYLAMIDE], the IC50 is > 50 µM.

For `Cc1ccc(NC(=O)C(CCCCN)NC(=O)C(N)Cc2cccc3ccccc23)cc1` [Compound 77, (S)-6-AMINO-2-(2-(S)-AMINO-3-NAPHTHALEN-1-YL-PROPIONYLAMINO)-HEXANOIC ACID P-TOLYLAMIDE], the IC50 was > 50 µM.

As to `Cc1ccc(NC(=O)C(CCCCN)NC(=O)NC(C)c2cccc3ccccc23)cc1` [Compound 97, (S,S)-6-AMINO-2-[3-(1-NAPHTHALEN-1-YL-ETHYL)-UREIDO]-HEXANOIC ACID P-TOLYLAMIDE], the IC50 is > 50 µM.
